According to publication PMC11698612, “Roles of NET Peptides With Known Antimicrobial Activity and Toxicity in Immune Response” (Journal of Immunology Research, 2024):
Entries after “also recorded” stand apart in the source; their conditions may differ.

Key:
[1] = tested on: IFN-γ secretion from TIB-71 macrophages; test: IFN-γ secretion by ELISA; assay type: cell-based, mouse
Description: Within the scope of the ELISA study, the effect of varying concentrations of the peptides we synthesized on the mouse macrophage cell line was examined. In this study, a cell line that was not treated with AMPs and LPS, a cell line treated only with AMPs, a cell line treated only with LPS, and a cell line treated with both LPS and AMPs were used. To find the changing TNF-α ratio after incubation, the kit named Mouse Tumor Necrosis Factor α ELISA Kit-RAB0477 (Sigma-Aldrich) was applied according to the protocol. Graphpad Prism (9.0.0) was utilized for performing a one-way ANOVA test (α = 0.05) for the statistical analysis. Similarly, ELISA was applied to measure the change in IFN-γ levels in response to the peptides and LPS. In this experiment, the Mouse IFN-γ ELISA Kit-E-EL-[…] was applied according to the specified kit protocol, and the results were evaluated.

[2] = tested on: TIB-71 RAW 264.7 macrophages; test: MTT cytotoxicity assay; assay type: cell-based, Mus musculus; details: for cytotoxicity (MTT), broad screening / cytotoxicity (MTT) / concentration from which NET1 and NET2 displayed similar cytotoxicity: LPS-free; for cytotoxicity (MTT), broad screening: peptide 0.125-64 µg/mL; for cytotoxicity (MTT), broad screening / cytotoxicity (MTT): triplicates; for cytotoxicity (MTT): peptide concentrations up to 4 μg/mL; for concentration from which NET1 and NET2 displayed similar cytotoxicity: screening 64 to 0.125 µg/mL; for increase of toxicity compared to that in the absence of LPS: with LPS (1, 10, 100 ng/mL) versus without LPS
Description: The TIB-71 RAW 264.7 macrophage line, which was obtained from Mus musculus, was used in this study, and this cell line was supplied by ATCC (Manassas, VA, USA). The MTT Cell Proliferation Kit (Sigma–Aldrich, St. Louis, MO, USA), a colorimetric method, was used to evaluate the damage caused by the peptides in eukaryotic cells. TIB-71 RAW 264.7 macrophages were revived under appropriate culture conditions (37°C, 5% CO2) to prepare for the experiment. The final concentration of peptides ranged 0.125–64 μg/mL. Samples were examined in triplicates for each concentration. Cells incubated without peptide treatment under the same conditions were used as the control. Magainin 2 (Mag2), a known natural AMP with no cytotoxic effects, was used as a positive control. The results were obtained using a 96-well plate reader at 550 and 690 nm.

[3] = tested on: IL-6 expression in TIB-71 macrophages; test: IL-6 expression by western blotting; assay type: cell-based, mouse; details: for IL-6 expression: peptide alone, normalized to β-actin, versus unstimulated cells, repeated twice
Description: Protein was extracted from TIB-71 cells for use in western blotting. For this purpose, the supernatant of the cells grown in the appropriate environment was separated for ELISA, whereas protein was extracted from the cellular pellets. Protein obtained using the Protein Extraction Kit (Abcam, Cambridge, UK) was prepared for western blotting. The concentrations of protein samples were determined using the Pierce BCA protein assay kit (Thermo Fisher Scientific). The results were analyzed by reading them on a 96-well plate reader at 565 nm. IL-6 was separated by 12% (w/v) SDS-PAGE and transferred onto a PVDF membrane using the wet transfer technique to compare the expression levels of the markers. Proteins were measured using horseradish peroxidase (HRP)-based clarity western ECL substrate and read using ChemiDoc devices. The area of the bands obtained in the western blotting results was computed using Image Lab software. Specifically, the volume occupied by the bands on the membrane was determined, and the band volume of IL-6 was normalized to that of β-actin to assess protein expression in a semiquantitative manner. Microsoft Excel was used for the semiquantitative analysis. IL-6 secretion by mouse macrophages in response to AMP exposure was examined by GraphPad Prism 9.0.0 one-way ANOVA test (GraphPad, La Jolla, CA, USA).

[4] = tested on: TNF-α secretion from TIB-71 macrophages; test: TNF-α secretion by ELISA; assay type: cell-based, mouse; details: for TNF-α response: peptide together with LPS (50 ng/mL), NET1 versus peptide only, NET2 at 2 or 4 µg/mL
Description: Within the scope of the ELISA study, the effect of varying concentrations of the peptides we synthesized on the mouse macrophage cell line was examined.
In this study, a cell line that was not treated with AMPs and LPS, a cell line treated only with AMPs, a cell line treated only with LPS, and a cell line treated with both LPS and AMPs were used. To find the changing TNF-α ratio after incubation, the kit named Mouse Tumor Necrosis Factor α ELISA Kit-RAB0477 (Sigma–Aldrich) was applied according to the protocol. Graphpad Prism (9.0.0) was utilized for performing a one-way ANOVA test (α = 0.05) for the statistical analysis.

[5] = peptide together with LPS (50 ng/mL)
[6] = peptide 0.5 µg/mL, response to decreasing LPS concentrations (1, 10, 100 ng/mL)
[7] = peptide 2 µg/mL, LPS 1, 10, 100 ng/mL
[8] = peptide 4 µg/mL, LPS 1, 10, 100 ng/mL

RLLLRLLRRLLRLLLR-NH2 [NET1, designed LL-37-like 16-amino acid antimicrobial peptide, …-NH2]
IFN-γ secretion [1, 5]: decrease IFN-γ expression | cytotoxicity (MTT), broad screening [2]: low cytotoxicity | cytotoxicity (MTT) [2]: did not cause significant cytotoxicity | concentration from which NET1 and NET2 displayed similar cytotoxicity [2]: 4000 ng/mL | cytotoxicity in the presence of LPS [2, 6]: decreased NET1 cytotoxicity | cytotoxicity in the presence of LPS ([2]; peptide 1 µg/mL, LPS 1, 10, 100 ng/mL): lower cytotoxicity | cytotoxicity in the presence of LPS [2, 7]: lower cytotoxicity than NET2 | cytotoxicity in the presence of LPS [2, 8]: lowest toxicity | increase of toxicity compared to that in the absence of LPS ([2]; peptide 4 µg/mL): threefold | IL-6 expression compared with the other groups ([3]; NET1 at the lowest concentration of 2 µg/mL): threefold lower | IL-6 expression ([3]; no LPS): decreased | TNF-α response [4]: did not differ

RLLLRLLRRLLRLLLR-NH2 [NET2, designed LL-37-like 16-amino acid antimicrobial peptide, …-NH2]
IFN-γ secretion ([1]; peptide alone, LPS-free medium, three concentrations, versus control, one-way ANOVA): lower IFN-γ expression than NET1; also recorded: significantly increased | IFN-γ secretion [1, 5]: significantly increased | cytotoxicity (MTT), broad screening [2]: low cytotoxicity; also recorded: lower toxicity than the other peptides | cytotoxicity (MTT) [2]: did not cause significant cytotoxicity | concentration from which NET1 and NET2 displayed similar cytotoxicity [2]: 4000 ng/mL | cytotoxicity in the presence of LPS [2, 6]: increased cytotoxicity | cytotoxicity in the presence of LPS [2, 7]: increased with as the LPS concentration decreased | cytotoxicity in the presence of LPS [2, 8]: increased as the LPS concentration decreased | increase of toxicity compared to that in the absence of LPS ([2]; peptide 4 µg/mL): tenfold | IL-6 expression lower than that in NET1-treated cells ([3]; NET2 used alone, no LPS): 50% | IL-6 expression in cells treated with LPS ([3]; peptide 8 µg/mL with LPS): anti-inflammatory effect | IL-6 expression in combination with LPS ([3]; peptide 2 and 4 µg/mL with LPS, versus the other groups): significantly increased | IL-6 expression ([3]; no LPS): reduced IL-6 expression | TNF-α secretion ([4]; peptide alone, LPS-free medium): decreased with decreasing peptide concentrations | TNF-α response [4]: increased significantly
